Like-named read-outs stand apart in the source and are kept apart here.
Tests used:
[1] = Degradation in serum at 37° C. by HPLC; assay type: in vitro ADME; conditions: 24 h incubation in serum at 37° C.; release of 2 eq. of amine taken for 100%
Experimental: (§1) The degradation of double-arm combi-triazenes 5-9 has been investigated by HPLC. […] The rates of decomposition of bis-triazenes 7, 8 and 9 were measured by fluorescence spectroscopy by monitoring the formation of 1 (excitation: 279 and emission: 451). The determined half-lives ranged from 2 h for 7 and 8 to 3 h 20 min for 9.

EGFR [2] = biological target: T1, EGFR (Homo sapiens, UniProt P00533); test: EGFR kinase assay (ELISA, PGT substrate phosphorylation); assay type: biochemical; design: endogenous in cells; conditions: 10 min exposure; read-out: IC50, EGFR inhibitory potency, purified enzyme assay
LNCaPerbB2 = test: 6 day growth inhibition assay, LNCaP panel; conditions: Homo sapiens, 144 h, read-out: IC50, LNCaPerbB2 transfected cell line
DU145 = test: Growth inhibition in androgen independent prostate cancer cell line; conditions: Homo sapiens
[3] = Rate of decomposition by fluorescence spectroscopy (formation of amine 1); assay type: physicochemical; conditions: excitation 279, emission 451
Experimental: as §1

NIH3T3 [4] = test: Growth inhibition in isogenic NIH3T3 panel (double-arm combi-triazenes); assay type: cell-based; conditions: Mus musculus, FIG. 14
NIH3T3/neu = test: as above; assay type: cell-based, mouse; conditions: for IC50: Mus musculus, NIH3T3, FIG. 14; for fold selectivity for neu transfectant: vs NIH3T3
NIH3T3/Her14 = test: as above; assay type: cell-based, mouse; conditions: for IC50: Mus musculus, NIH3T3, FIG. 14; for fold selectivity for EGFR transfectant: vs NIH3T3
MDA-MB-468 cells [5] = test: Reversibility of antiproliferative effect, SRB assay; assay type: cell-based, human
Experimental: (§2) In vitro growth inhibition assay: To study the effect of the compounds on growth factor stimulated-proliferation, cells were grown to 70% of confluence in 48-well plates. […] Cell growth was measured using the sulforhodamine B (SRB) assay (24). Briefly, following drug treatment, cells were fixed using 50 μl of cold trichloroacetic acid (50%) for 60 min at 4° C., washed five times with tap water, and stained for 30 min at room temperature with SRB (0.4%) and dissolved in acetic acid (0.5%). The plates were rinsed five times with 1% acetic acid and allowed to air dry. The resulting colored residue was dissolved in 200 μl of Tris base (10 mM), and the optical density read for each well at 450 nm using a Bio-Rad microplate reader (model 2550). […] Cell growth was measured using SRB assay as described previously.

NIH3T3neu [6] = biological target: T2, NIH3T3neu (UniProt P04626, cells depend on it, species not given); test: Blockade of serum-stimulated growth, SRB assay (Table 1); assay type: cell-based, mouse; conditions: serum-stimulated growth; read-out: Inhibition of growth stimulation of NIH3T3neu
T2 construct: other: serum-stimulated growth
Experimental: (§3) In vitro growth inhibition assay: To study the effect of the compounds on growth factor stimulated-proliferation, cells were grown to 70% of confluence in 48-well plates. They were subsequently washed twice with PBS, incubated in serum-free medium for 18 h and exposed to each drug+growth factors (EGF, TGFα, PDGF or serum) for 72 h. Cell growth was measured using the sulforhodamine B (SRB) assay (24). Briefly, following drug treatment, cells were fixed using 50 μl of cold trichloroacetic acid (50%) for 60 min at 4° C., washed five times with tap water, and stained for 30 min at room temperature with SRB (0.4%) and dissolved in acetic acid (0.5%). The plates were rinsed five times with 1% acetic acid and allowed to air dry. The resulting colored residue was dissolved in 200 μl of Tris base (10 mM), and the optical density read for each well at 450 nm using a Bio-Rad microplate reader (model 2550). […] Cell growth was measured using SRB assay as described previously.

NIH3T3 [7] = test: as above; assay type: cell-based; conditions: Mus musculus, read-out: Inhibition of growth stimulation of NIH3T3
Experimental: as §3

A431 = test: Inhibition of basal growth (Table 1); assay type: cell-based; conditions: Homo sapiens, A-431
Experimental: as §3

EGFR [8] = biological target: T1, EGFR; test: EGFR kinase assay (ELISA, PGT substrate phosphorylation); assay type: biochemical; design: endogenous in cells; conditions: Table 1, inhibition of EGFR kinase; read-out: EGFR Binding
Experimental: Kinase assays: The EGFR kinase assay is similar to the one described in previously published procedures (19, 20). Nunc Maxisorp 96-well plates were incubated overnight at 37° C. with 100 μl/well of 0.25 mg/ml poly (L-glutamic acid-L-tyrosine, 4:1) PGT in PBS. Excess PGT was removed and the plate was washed three times with wash buffer (Tween 20 (0.1%) in PBS). […] The compound was added and phosphorylation initiated by the addition of ATP 50 μM. After 8 min at room temperature with constant shaking, the reaction was terminated by aspiration of the reaction mixture and rinsing the plate four times with wash buffer. […] Antibody was removed by aspiration, and the plate washed four times with wash buffer.

NIH3T3neu [9] = test: Blockade of serum-stimulated growth, SRB assay (Table 1); assay type: cell-based, mouse; conditions: FIG. 12, 72 h
Experimental: as §3

MDA-MB-453 cells = test: Reversibility of antiproliferative effect, SRB assay; assay type: cell-based, human
Experimental: as §2

MDA-MB-468 cells [10] = test: Annexin V binding (apoptosis), flow cytometry; assay type: cell-based, human; conditions: for levels of apoptosis: 5 μM, 24, 48 and 72 h
Experimental: Annexin V Binding: Cells were grown in 6-well plates until confluence and then incubated with the compounds for 24 h, 48 and 72 h. The cells were then harvested, washed twice with PBS, and centrifuged. Cells (10^5) were treated with annexin V-FITC and propidium iodide (PI) using the Apoptosis Detection Kit (BD Bioscience Pharmingen, USA) and the supplier's protocol. Annexin V-FITC and PI binding were analyzed by flow cytometry. Data were collected using logarithmic amplification of both the FL1 (FITC) and FL2 (PI) channels. Quadrant analysis of co-ordinate dot plots was performed with CellQuest software. Unstained cells were used to adjust the photomultiplier voltage and for compensation setting adjustment in order to eliminate spectral overlap between the FL1 and FL2 signals.

[11] = tested on: human breast carcinoma MDA-MB-468; test: In vivo efficacy, MDA-MB-468 implanted in the mammary fat pad; design: species or system SCID mice
Experimental: In vivo studies: SCID mice were maintained as per McGill animal safety protocols. In a preliminary model, SCID mice housed in filtered cages were implanted subcutaneously (s.c.) with the human breast carcinoma MDA-MB-468 and treatment began when the tumors were palpable (8 mice/group). […] The tumor burdens were measured with a caliper and mice were weighed twice weekly. The study was later repeated with the MDA-MB-468 cells implanted in the mammary fat pad, a model that better mimics human breast carcinoma.

Water solubility = assay type: physicochemical
[12] = DU-145, 144 h, read-out: IC50, 6 day continued growth inhibition assay
[13] = DU-145, read-out: IC50, growth inhibition in DU145

T1 sequence (P00533 25-1210): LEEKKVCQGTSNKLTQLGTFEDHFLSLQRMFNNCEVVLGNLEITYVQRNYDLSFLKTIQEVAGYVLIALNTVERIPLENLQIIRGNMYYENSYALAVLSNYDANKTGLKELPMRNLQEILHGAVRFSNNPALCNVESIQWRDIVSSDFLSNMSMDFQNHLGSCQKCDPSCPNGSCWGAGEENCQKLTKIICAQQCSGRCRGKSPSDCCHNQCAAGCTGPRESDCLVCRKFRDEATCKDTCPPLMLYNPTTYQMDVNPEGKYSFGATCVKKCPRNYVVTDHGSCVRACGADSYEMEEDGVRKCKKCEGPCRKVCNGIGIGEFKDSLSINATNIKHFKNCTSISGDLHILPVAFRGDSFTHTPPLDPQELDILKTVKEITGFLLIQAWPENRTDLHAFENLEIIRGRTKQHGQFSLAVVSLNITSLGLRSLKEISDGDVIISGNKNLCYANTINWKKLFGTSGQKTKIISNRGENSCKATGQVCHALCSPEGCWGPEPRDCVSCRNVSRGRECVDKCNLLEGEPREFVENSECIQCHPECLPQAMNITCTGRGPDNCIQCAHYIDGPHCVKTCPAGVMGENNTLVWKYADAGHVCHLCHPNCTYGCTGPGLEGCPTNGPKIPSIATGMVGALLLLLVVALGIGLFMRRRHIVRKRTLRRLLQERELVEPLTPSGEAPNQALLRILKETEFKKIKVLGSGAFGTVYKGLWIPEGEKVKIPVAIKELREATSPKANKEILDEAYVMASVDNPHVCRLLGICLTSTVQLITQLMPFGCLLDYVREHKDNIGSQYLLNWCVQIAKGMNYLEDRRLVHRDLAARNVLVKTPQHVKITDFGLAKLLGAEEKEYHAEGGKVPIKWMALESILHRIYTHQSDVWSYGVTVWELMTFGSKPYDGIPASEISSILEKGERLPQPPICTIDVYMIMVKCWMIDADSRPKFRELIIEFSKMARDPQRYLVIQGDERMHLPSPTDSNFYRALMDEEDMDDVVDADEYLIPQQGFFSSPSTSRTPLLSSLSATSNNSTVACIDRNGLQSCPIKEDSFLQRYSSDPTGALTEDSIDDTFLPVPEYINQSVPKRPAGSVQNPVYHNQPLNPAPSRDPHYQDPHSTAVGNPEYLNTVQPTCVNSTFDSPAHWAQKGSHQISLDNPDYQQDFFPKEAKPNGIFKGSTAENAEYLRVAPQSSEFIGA

Structure (SMILES): Clc1cccc(Nc2ncnc3ccc(N=NNCc4ccccc4CNN=Nc4ccc5ncnc(Nc6cccc(Cl)c6)c5c4)cc23)c1 [Double-arm combi-triazene 5]
- release of parent amine 1 [1]: negligible quantities
- IC50 (EGFR [2]): 7 µM
- IC50 (LNCaPerbB2): 18 µM
- IC50 (DU145; [12]): 12 µM

Structure (SMILES): Clc1cccc(Nc2ncnc3ccc(N=NNCc4ccc(CNN=Nc5ccc6ncnc(Nc7cccc(Cl)c7)c6c5)cc4)cc23)c1 [Double-arm combi-triazene 6]
- IC50 (EGFR [2]): > 10 µM
- IC50 (LNCaPerbB2): 37 µM
- IC50 (DU145; [12]): 35 µM

Structure (SMILES): Clc1cccc(Nc2ncnc3ccc(N=NNCCN4CCN(CCNN=Nc5ccc6ncnc(Nc7cccc(Cl)c7)c6c5)CC4)cc23)c1 [Double-arm combi-triazene 7]
- half-life [3]: 2 h
- IC50 (NIH3T3 [4]): 44 µM
- IC50 (NIH3T3/neu): 0.4 µM
- fold selectivity for neu transfectant (NIH3T3/neu): 110 fold
- IC50 (NIH3T3/Her14): 0.5 µM
- fold selectivity for EGFR transfectant (NIH3T3/Her14): 88 fold
- IC50 (EGFR [2]): 1 µM
- IC50 (LNCaPerbB2): 9 µM
- IC50 (DU145; [12]): 1.8 µM
- IC50 (DU145; [13]): 2.8 µM

Structure (SMILES): CN(CCNN=Nc1ccc2ncnc(Nc3cccc(Cl)c3)c2c1)CCN(C)CCNN=Nc1ccc2ncnc(Nc3cccc(Cl)c3)c2c1 [Double-arm combi-triazene 8]
- half-life [3]: 2 h
- IC50 (NIH3T3 [4]): 0.1 µM
- IC50 (NIH3T3/neu): 0.02 µM
- IC50 (NIH3T3/Her14): 0.02 µM
- fold more active (NIH3T3/Her14; compared with double-arm combi-triazene 9): 20 fold
- IC50 (EGFR [2]): 0.05 µM
- IC50 (LNCaPerbB2): 6 µM
- IC50 (DU145; [12]): 3.2 µM
- IC50 (DU145; [13]): 1 µM

Structure (SMILES): CN(CCNN=Nc1ccc2ncnc(Nc3cccc(Cl)c3)c2c1)CCNN=Nc1ccc2ncnc(Nc3cccc(Cl)c3)c2c1 [Double-arm combi-triazene 9]
- IC50 (NIH3T3 [4]): 2.3 µM
- fold selectivity for neu transfectant (NIH3T3/neu): 7 fold
- IC50 (NIH3T3/Her14): 0.5 µM
- fold selectivity for EGFR transfectant (NIH3T3/Her14): 4 fold
- IC50 (EGFR [2]): 0.003 µM
- IC50 (LNCaPerbB2): 11 µM
- IC50 (DU145; [12]): 2.3 µM
- IC50 (DU145; [13]): 2.6 µM

Structure (SMILES): Nc1ccc2ncnc(Nc3cccc(Cl)c3)c2c1 [FD105, reference compound]
- IC50 (MDA-MB-468 cells [5]; MDA-MB-468, SRB, read-out: IC50, growth inhibition, 120 h continuous exposure): 23.6 µM
- IC50 (MDA-MB-468 cells [5]; read-out: IC50, growth inhibition, 2 h exposure followed by 120 h recovery, MDA-MB-468, SRB): 192 µM

Structure (SMILES): CN(CCN(C)N=Nc1ccc2ncnc(Nc3cccc(Cl)c3)c2c1)CCN(C)N=Nc1ccc2ncnc(Nc3cccc(Cl)c3)c2c1 [JCF29]
- GI50 (NIH3T3neu [6]): 43.3 µM
- IC50 (NIH3T3 [7]): 186 µM
- IC50 (A431): 38.1 µM
- IC50 (EGFR [8]): 0.036 µM

Structure (SMILES): CN(CCN(C)N=Nc1ccc2ncnc(Nc3cccc(Cl)c3)c2c1)N=Nc1ccc2ncnc(Nc3cccc(Cl)c3)c2c1 [JFC16]
- GI50 (NIH3T3neu [6]): 23.1 µM
- IC50 (NIH3T3 [7]): 137 µM
- IC50 (EGFR [8]): 0.29 µM

Structure (SMILES): CN(C)CCN(C)N=Nc1ccc2ncnc(Nc3cccc(Cl)c3)c2c1 [JFC30]
- GI50 (NIH3T3neu [6]): 1.25 µM
- IC50 (NIH3T3 [7]): 13.9 µM
- IC50 (A431): 18.9 µM
- IC50 (EGFR [8]): 0.014 µM

Structure (SMILES): CN(CCOCCN(C)N=Nc1ccc2ncnc(Nc3cccc(Cl)c3)c2c1)N=Nc1ccc2ncnc(Nc3cccc(Cl)c3)c2c1 [JFC31]
- GI50 (NIH3T3neu [6]): < 0.75 µM
- selectivity for NIH3T3 HER2 transfected cells in isogenic model (NIH3T3neu [9]): significant selectivity
- IC50 (NIH3T3 [7]): 4.65 µM
- IC50 (A431): 4.79 µM
- IC50 (EGFR [8]): 0.003 µM

Structure (SMILES): COCCN(C)N=Nc1ccc2ncnc(Nc3cccc(Cl)c3)c2c1 [JFC32]
- GI50 (NIH3T3neu [6]): 1.65 µM
- IC50 (NIH3T3 [7]): 112 µM
- IC50 (A431): 23.4 µM
- IC50 (EGFR [8]): 0.013 µM

Structure (SMILES): C=CC(=O)Nc1ccc2ncnc(Nc3cccc(Br)c3)c2c1 [PD168393, reference compound]
- IC50 (MDA-MB-453 cells; Homo sapiens, MDA-MB-453, 120 h, MDA-MB-453, SRB, read-out: IC50, growth inhibition, 120 h continuous exposure): 1.81 µM
- IC50 (MDA-MB-453 cells; Homo sapiens, MDA-MB-453, read-out: IC50, growth inhibition, 2 h exposure followed by 120 h recovery, MDA-MB-453, SRB): 10.3 µM
- IC50 (MDA-MB-453 cells; MDA-MB-453, SRB, read-out: IC50, growth inhibition, 120 h continuous exposure): 1.71 µM
- IC50 (MDA-MB-453 cells; read-out: IC50, growth inhibition, 2 h exposure followed by 120 h recovery, MDA-MB-453, SRB): 11.5 µM
- levels of apoptosis (MDA-MB-468 cells [10]): barely detectable levels of apoptosis

Structure (SMILES): Nc1ccc2ncnc(Nc3cccc(Br)c3)c2c1 [ZR01, reference compound]
- levels of apoptosis (MDA-MB-468 cells [10]): barely detectable levels of apoptosis

Structure (SMILES): ClCCNc1ccc2ncnc(Nc3cccc(Cl)c3)c2c1 [ZR2003]
- IC50 (MDA-MB-468 cells [5]; Homo sapiens, MDA-MB-468, 120 h, read-out: IC50, growth inhibition, 120 h continuous exposure, MDA-MB-468, SRB): 0.51 µM
- IC50 (MDA-MB-468 cells [5]; Homo sapiens, MDA-MB-468, read-out: IC50, growth inhibition, 2 h exposure followed by 120 h recovery, MDA-MB-468, SRB): 4.81 µM
- concentration at which detectable levels of apoptosis start (MDA-MB-468 cells [10]): 12 µM
- cell death by apoptosis compared with FD105 (MDA-MB-468 cells [10]; 12 μM, 48 h): significantly higher levels of cell death by apoptosis
- in vivo antiproliferative activity ([11]; 50 mg/kg i.p. every 3-4 days, mammary fat pad): strong antiproliferative activity
- in vivo potency compared with ZR2002 ([11]; mouse, in vivo): significantly more potent
- in vivo potency compared with FD105 ([11]; same dose, p<0.05): significant superior potency
- water solubility (in words) (Water solubility): more hydro-soluble

Reference: patent US7879861B2, “Combi-molecules having EGFR and DNA targeting properties” (priority 2005, dated 2011)
